Data from ChEMBL document CHEMBL4406913, “INCB050465 (Parsaclisib), a Novel Next-Generation Inhibitor of Phosphoinositide 3-Kinase Delta (PI3Kδ)” (ACS Med Chem Lett, 2019).
Values after ≈ are worked out from the molar mass of the structure shown. Active and inactive are the calls of the source. The rule behind the calls is not given here.

Assays:
[1] = Volume of distribution at steady state in Beagle dog at 2 mg/kg, iv measured for 24 hrs by LC-MS/MS analysis; type: ADME, organism-based, Canis lupus familiaris; details: in vivo, read-out: Vdss
[2] = Volume of distribution at steady state in cynomolgus monkey at 2 mg/kg, iv measured for 24 hrs by LC-MS/MS analysis; type: ADME, organism-based, Macaca fascicularis; details: in vivo, read-out: Vdss
[3] = Oral bioavailability in rat at 4 mg/kg measured for 24 hrs by LC-MS/MS analysis; type: ADME, organism-based; details: in vivo
[4] = Solubility of the compound at pH 7.4; type: physicochemical; details: buffer
SU-DHL-6 = experiment: Cytotoxicity against human SUDHL6 cells assessed as reduction in cell viability incubated for 4 days by celltiter glo luminescent assay; type: functional, cell-based; details: SU-DHL-6, 96 h
Cytochrome P450 1A2 = target: T1, Cytochrome P450 1A2 (Homo sapiens, UniProt P05177); experiment: Inhibition of CYP1A2 in human liver microsomes at 0.1 to 25 uM using 7-ethoxyresorufin as substrate by LC/MS analysis; type: ADME
T1 sequence (P05177 whole entry): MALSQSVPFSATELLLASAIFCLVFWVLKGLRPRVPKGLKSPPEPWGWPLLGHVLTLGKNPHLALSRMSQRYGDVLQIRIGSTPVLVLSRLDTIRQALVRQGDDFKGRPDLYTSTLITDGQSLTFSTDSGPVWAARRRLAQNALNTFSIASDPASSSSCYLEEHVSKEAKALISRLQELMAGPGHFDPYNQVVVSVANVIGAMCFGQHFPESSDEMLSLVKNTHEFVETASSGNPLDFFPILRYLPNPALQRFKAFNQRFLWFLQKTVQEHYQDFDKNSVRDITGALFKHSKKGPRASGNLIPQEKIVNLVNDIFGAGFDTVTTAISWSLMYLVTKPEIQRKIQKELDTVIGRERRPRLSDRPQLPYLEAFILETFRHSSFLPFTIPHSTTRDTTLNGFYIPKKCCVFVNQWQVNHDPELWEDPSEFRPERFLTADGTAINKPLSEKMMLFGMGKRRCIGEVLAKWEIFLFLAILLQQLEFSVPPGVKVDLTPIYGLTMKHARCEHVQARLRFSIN

Cytochrome P450 3A4 = Cytochrome P450 3A4 (Homo sapiens, UniProt P08684); experiment: Inhibition of CYP3A4 in human liver microsomes at 0.1 to 25 uM using midazolam as substrate by LC/MS analysis; type: ADME
Sequence of Cytochrome P450 3A4 (P08684 whole entry): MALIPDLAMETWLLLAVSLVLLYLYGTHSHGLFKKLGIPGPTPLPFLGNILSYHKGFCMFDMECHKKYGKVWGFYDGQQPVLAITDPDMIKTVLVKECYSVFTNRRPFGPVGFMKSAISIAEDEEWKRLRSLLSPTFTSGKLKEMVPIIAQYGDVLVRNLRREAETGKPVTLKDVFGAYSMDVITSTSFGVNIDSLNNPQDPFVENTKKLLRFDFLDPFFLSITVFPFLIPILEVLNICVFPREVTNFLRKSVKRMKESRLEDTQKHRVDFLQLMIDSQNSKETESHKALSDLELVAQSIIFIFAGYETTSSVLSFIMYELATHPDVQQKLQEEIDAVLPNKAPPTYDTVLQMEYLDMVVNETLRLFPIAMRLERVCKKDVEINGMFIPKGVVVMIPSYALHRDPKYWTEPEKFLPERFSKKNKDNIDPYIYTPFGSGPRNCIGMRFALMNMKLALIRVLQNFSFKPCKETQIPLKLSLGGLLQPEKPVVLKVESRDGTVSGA

[5] = Tmax in cynomolgus monkey at 4 mg/kg, po measured for 24 hrs by LC-MS/MS analysis; type: ADME, organism-based, Macaca fascicularis; details: in vivo
Pfeiffer [6] = experiment: Antitumor activity against human Pfeiffer cells xenografted in SCID mouse assessed as reduction in tumor growth at 1 mg/kg, po bid for 14 days measured 2-3 times weekly by digital caliper method; type: functional, organism-based
Cytochrome P450 2D6 = Cytochrome P450 2D6 (Homo sapiens, UniProt P10635); experiment: Inhibition of CYP2D6 in human liver microsomes using bufuralol as substrate by LC/MS analysis; type: ADME
Sequence of Cytochrome P450 2D6 (P10635 whole entry, canonical isoform): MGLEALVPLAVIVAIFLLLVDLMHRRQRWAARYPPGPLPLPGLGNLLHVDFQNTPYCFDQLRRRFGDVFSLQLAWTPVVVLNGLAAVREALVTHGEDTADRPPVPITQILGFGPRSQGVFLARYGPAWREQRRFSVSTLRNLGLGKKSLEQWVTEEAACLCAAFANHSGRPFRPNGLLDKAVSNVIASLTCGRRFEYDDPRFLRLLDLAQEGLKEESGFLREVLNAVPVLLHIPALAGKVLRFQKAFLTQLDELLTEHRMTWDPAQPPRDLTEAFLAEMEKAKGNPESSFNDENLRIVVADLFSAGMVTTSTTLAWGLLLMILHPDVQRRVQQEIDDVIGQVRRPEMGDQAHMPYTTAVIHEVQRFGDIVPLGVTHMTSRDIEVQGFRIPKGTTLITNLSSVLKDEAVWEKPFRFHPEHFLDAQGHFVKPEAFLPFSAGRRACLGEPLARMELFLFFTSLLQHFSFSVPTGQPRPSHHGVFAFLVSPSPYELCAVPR

[7] = target: Phosphatidylinositol 4,5-bisphosphate 3-kinase catalytic subunit gamma isoform (Homo sapiens, UniProt P48736); experiment: Inhibition of PI3Kgamma (unknown origin) using D-myophosphatidylinositol 4,5-bisphosphate as substrate incubated for 120 mins by [gamma-33P]-ATP based scintillation counting method
Sequence of Phosphatidylinositol 4,5-bisphosphate 3-kinase catalytic subunit gamma isoform (P48736 whole entry, canonical isoform): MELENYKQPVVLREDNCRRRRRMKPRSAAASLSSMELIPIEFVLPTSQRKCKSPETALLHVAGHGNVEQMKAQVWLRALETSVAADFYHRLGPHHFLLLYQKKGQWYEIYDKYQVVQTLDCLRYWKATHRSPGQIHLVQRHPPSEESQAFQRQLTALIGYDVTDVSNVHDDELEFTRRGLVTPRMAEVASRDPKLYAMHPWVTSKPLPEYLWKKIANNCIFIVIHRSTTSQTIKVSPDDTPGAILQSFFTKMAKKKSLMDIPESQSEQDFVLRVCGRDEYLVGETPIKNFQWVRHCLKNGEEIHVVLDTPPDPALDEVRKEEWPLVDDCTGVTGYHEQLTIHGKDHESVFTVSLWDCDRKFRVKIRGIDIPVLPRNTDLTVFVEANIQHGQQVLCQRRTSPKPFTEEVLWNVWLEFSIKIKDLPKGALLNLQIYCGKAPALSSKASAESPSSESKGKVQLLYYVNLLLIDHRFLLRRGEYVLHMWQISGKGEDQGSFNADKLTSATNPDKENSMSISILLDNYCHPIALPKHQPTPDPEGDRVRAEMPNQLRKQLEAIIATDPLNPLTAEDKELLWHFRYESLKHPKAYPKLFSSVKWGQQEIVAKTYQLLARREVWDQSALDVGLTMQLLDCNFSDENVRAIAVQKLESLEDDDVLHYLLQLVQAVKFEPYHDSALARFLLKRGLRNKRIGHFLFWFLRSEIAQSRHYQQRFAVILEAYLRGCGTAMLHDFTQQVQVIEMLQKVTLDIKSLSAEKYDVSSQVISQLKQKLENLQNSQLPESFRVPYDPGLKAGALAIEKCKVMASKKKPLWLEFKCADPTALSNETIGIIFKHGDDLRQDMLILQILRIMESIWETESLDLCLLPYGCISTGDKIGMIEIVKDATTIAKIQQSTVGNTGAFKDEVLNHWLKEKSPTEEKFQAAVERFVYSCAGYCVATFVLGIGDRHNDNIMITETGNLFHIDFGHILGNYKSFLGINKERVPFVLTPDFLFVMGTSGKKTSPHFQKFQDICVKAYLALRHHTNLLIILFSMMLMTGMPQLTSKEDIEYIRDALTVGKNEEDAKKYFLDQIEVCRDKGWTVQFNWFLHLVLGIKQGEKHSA

[8] = Volume of distribution at steady state in rat at 4 mg/kg, iv measured for 24 hrs by LC-MS/MS analysis; type: ADME, organism-based; details: in vivo, read-out: Vdss
[9] = Hepatotoxicity in rat measured on day 28; type: toxicity; details: in vivo
Cytochrome P450 2C9 = Cytochrome P450 2C9 (Homo sapiens, UniProt P11712); experiment: Inhibition of CYP2C9 in human liver microsomes at 0.1 to 25 uM using diclofenac as substrate by LC/MS analysis; type: ADME
Sequence of Cytochrome P450 2C9 (P11712 whole entry): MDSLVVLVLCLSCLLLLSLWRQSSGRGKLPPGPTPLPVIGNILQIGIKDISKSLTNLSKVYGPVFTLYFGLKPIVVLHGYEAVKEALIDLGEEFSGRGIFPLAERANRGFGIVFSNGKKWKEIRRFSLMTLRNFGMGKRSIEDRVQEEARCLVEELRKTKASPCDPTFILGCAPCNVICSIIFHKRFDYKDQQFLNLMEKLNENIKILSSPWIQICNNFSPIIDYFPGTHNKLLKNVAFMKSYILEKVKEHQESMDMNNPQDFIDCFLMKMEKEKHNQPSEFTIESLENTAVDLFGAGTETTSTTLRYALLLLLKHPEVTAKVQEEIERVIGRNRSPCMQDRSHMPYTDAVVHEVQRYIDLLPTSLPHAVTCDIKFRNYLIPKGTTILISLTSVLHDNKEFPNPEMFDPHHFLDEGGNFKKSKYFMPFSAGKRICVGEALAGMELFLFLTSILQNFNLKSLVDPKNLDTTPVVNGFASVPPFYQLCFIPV

[10] = Hepatotoxicity in Beagle dog measured on day 28; type: toxicity, Canis lupus familiaris; details: in vivo
[11] = target: T2, Phosphatidylinositol 4,5-bisphosphate 3-kinase catalytic subunit delta isoform (Homo sapiens, UniProt O00329)
T2 sequence (O00329 whole entry): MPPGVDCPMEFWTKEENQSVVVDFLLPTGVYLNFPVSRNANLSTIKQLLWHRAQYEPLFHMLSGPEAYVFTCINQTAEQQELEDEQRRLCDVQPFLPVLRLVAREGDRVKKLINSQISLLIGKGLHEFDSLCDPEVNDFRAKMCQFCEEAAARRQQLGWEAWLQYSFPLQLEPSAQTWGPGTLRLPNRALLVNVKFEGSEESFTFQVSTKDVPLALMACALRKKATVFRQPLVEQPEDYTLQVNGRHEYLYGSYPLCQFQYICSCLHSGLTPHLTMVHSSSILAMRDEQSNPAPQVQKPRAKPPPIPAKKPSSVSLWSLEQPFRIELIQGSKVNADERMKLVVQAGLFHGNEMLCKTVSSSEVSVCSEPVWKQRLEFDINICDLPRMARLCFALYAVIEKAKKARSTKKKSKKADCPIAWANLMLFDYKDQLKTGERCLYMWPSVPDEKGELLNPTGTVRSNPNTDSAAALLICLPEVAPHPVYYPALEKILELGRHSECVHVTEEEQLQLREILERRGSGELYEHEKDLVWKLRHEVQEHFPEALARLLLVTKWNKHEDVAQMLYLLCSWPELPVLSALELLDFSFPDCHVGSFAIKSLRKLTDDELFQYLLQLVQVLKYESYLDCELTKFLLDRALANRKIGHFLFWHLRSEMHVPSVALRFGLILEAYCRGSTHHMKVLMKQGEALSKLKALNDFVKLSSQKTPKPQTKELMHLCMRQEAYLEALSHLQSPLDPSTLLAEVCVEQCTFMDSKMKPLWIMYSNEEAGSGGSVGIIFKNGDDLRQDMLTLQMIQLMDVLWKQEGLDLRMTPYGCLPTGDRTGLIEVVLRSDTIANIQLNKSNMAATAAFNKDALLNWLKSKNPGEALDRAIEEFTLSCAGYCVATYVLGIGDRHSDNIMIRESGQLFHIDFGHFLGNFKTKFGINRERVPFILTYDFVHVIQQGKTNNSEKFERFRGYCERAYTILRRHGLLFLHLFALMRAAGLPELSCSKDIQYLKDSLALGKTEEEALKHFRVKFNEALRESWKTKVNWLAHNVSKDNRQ
Description: (§1) Inhibition of PI3Kdelta (unknown origin) using D-myophosphatidylinositol 4,5-bisphosphate as substrate incubated for 120 mins by [gamma-33P]ATP based SPA assay

[12] = target: T3, Phosphatidylinositol 4,5-bisphosphate 3-kinase catalytic subunit delta isoform (Homo sapiens) (UniProt O00329)
T3 sequence (whole entry): T2 sequence (O00329 whole entry)
Description: as §1

Pfeiffer [13] = experiment: Cytotoxicity against human Pfeiffer cells assessed as reduction in cell viability incubated for 4 days by [3H]-thymidine incorporation based liquid scintillation counter method; type: functional

Vd [1]: 0.32 L/kg | Vd [2]: 0.72 L/kg | bioavailability [3]: 74% | solubility [4]: 0.21 mg/mL (≈ 485 µM) | inhibition (INH) (Cytochrome P450 1A2): Not Active | inhibition (INH) (Cytochrome P450 3A4): Not Active | Tmax [5]: 2.5 h | inhibition (INH) (Cytochrome P450 2D6): Not Active | IC50 [7]: > 10000 nM | Vd [8]: 1.54 L/kg | inhibition (INH) (Cytochrome P450 2C9): Not Active | IC50 [11]: < 1 nM | inhibition [12]: inactive
Structure (SMILES): CCOc1c([C@H](C)n2nc(C)c3c(N)ncnc32)cc(Cl)c(F)c1[C@@H]1CNC(=O)C1 [PARSACLISIB]
IC50 (SU-DHL-6): 1.6 nM | inhibition (Pfeiffer [6]): Active | Activity [9]: Non-Toxic | Activity [10]: Non-Toxic | IC50 (Pfeiffer [13]): 2.5 nM
